No end group written: not given here.
Legend:
Design in all cases: species or system human
[1] = test system: IgE of walnut-allergic patients' sera; assay: IgE binding to solid phase synthetic peptides (SPOTs analysis); settings: for number of patients' sera positive for the peptide: 20 individual patients' sera
Source text: The study was approved by the Human Subjects Review Committee at the University of California, Davis. Sera from 20 walnut-allergic patients with a convincing history of life-threatening systemic allergic reactions to walnuts, positive ImmunoCAP assays (Pharmacia, Inc., Diagnostics, Columbus, Ohio), and evidence of IgE against rJug r 1 (see below) were used in this study. Control sera were obtained from atopic patients with no history of walnut sensitivity, and one patient with life-threatening reactions to walnuts, positive ImmunoCAP assay, positive serum IgE immunoblot to walnut proteins, but negative for binding to the 2S albumin.
Based on the published amino acid sequence of Jug r 1 and our unpublished data determining the subunit cleavage sites,^6 twenty-five 13-amino acid peptides, offset by three amino acids, were synthesized which corresponded to the entire 64-amino acid length of the large subunit (FIG. 1A) and 26-amino acid length of the small subunit (FIG. 1B). Additional peptides bearing the target epitope (QGLRGEEMEEMV), SEQ ID NO:1, mutated forms of this peptide, and a non-IgE binding peptide (LSQRGLQSSSV), SEQ ID NO:6, were also synthesized. […] versions of the target peptide were created via a single site alanine substitution at each position along the amino acid sequence, and six mutated peptides were synthesized using multiple alanine substitutions, as shown in FIG. 6.
Peptides were synthesized on derivatized cellulose sheets using 9-fluorenlymethoxy carbonyl-derived (Fmoc) amino acids as described by the manufacturer (Genosys Biotechnologies, Inc., The Woodlands, Tex.). Briefly, cellulose membranes containing free hydroxy groups were esterfied with an Fmoc-amino acid dissolved in 1-methyl-2 pyrrolidione. The coupling reaction was followed by washing in N,N-dimethylformamide (DMF) and the amino acids were acetylated with acetic anhydride. The membranes were deprotected by washing in DMF and incubation with a solution of 20% piperidine in DMF followed by another wash in DMF. Coupling, acetylation, and deprotection steps were repeated for each cycle. During the final cycle, a mixture of dichloromethane, trifluoroacetic acid, and triisobutylsilane (1:1:0.05) was used to deprotect the acid-labile amino acid side chains.
(§1) The peptide-containing membranes were washed in TBS and incubated o/n at RT in blocking solution as directed by the manufacturer (Genosys Biotechnologies, Inc., The Woodlands, Tex.). Membranes were then washed in TBS-T for 10 min and incubated o/n at 4° C. with individual patient's serum or pooled patients' sera diluted 1:5 in blocking buffer (total sera:blocking buffer). This incubation was followed by three 5-min washes in TBS-T and an o/n (4° C.) incubation with ^125I-anti-human IgE (Hycor Biomedical Inc., Garden Grove, Calif.) diluted 1:10 in a mixture of PBS, 5% nonfat dry milk, and 0.05% Tween-20. Three final 10 min washes in PBS/0.05% Tween-20 were performed and IgE-peptide reactivity identified after a 48 hr exposure at −70° C. to Kodak Biomax x-ray film.

[2] = test system: E1-specific IgE of patients' sera; assay: Inhibition by soluble epitope peptide of IgE binding to solid-phase E1 peptide
Procedure: as §1
A soluble form of an identified IgE-reactive peptide is (QGLRGEEMEEMV) was synthesized by Fmoc protocols on an automated peptide synthesizer (Model 433A, Applied Biosystems, Foster City, Calif.).
(§2) To test the specificity and reactivity of the epitope-specific IgE, control, pooled and fractionated patients' sera were pre-incubated o/n at 4° C. with different amounts (70, 7.0, and 0.7 μg) of the soluble epitope peptide, or a soluble non-specific peptide. […] Detection of IgE binding to the solid-phase synthetic peptides and dot-blotted rJug r 1 was detected using ^125I-anti-human IgE and ECL+, respectively, as described earlier.

[3] = test system: patient serum IgE binding to rJug r 1; assay: Inhibition by soluble epitope peptide of IgE binding to dot-blotted rJug r 1
Procedure: For dot-blot assays, a graphite pencil was used to circumscribe 4 mm×8 mm elipses on a dry 0.4 μm NC membrane (Shleicher & Schuell; Keen, N.H.). The NC was incubated in distilled-deionized water (ddH2O) on a rocking table for 5 min and allowed to air dry before each dot was loaded with 0.11 μg of rJug r 1 in 2 μl of ddH2O. The antigen-loaded NC was then rinsed in ddH2O as described above, placed protein side up on 3MM paper (Whatman Intl. Ltd., Maidstone, England), and dried under a 60-watt light until all moisture was removed. […]
as §2

[4] = of the 20 patients tested, FIG. 4

inhibition of IgE binding to rJug r 1, eluate (E1 epitope-specific) IgE fractions ([3]; 70 μg soluble peptide, affinity column purified IgE fractions) | inhibition of binding of IgE to the intact rJug r 1 ([3]; patients' IgE, soluble peptide) | Sequence | number of patients' sera positive for the peptide [1] | inhibition of binding of E1-specific IgE to the solid phase epitope ([2]; 70 μg soluble peptide) | inhibition of IgE binding to solid-phase E1 peptide ([2]; 70, 7.0, 0.7 μg peptide pre-incubated with whole patients' sera, FIG. 5C) | number of patients exhibiting moderate recognition of the epitope peptide [1, 4] | number of patients exhibiting strong recognition of the epitope peptide [1, 4] | number of patients exhibiting weak recognition of the epitope peptide [1, 4] | number of patients showing no recognition of the epitope peptide [1, 4]
 |  | LSQRSQQQCRQ [(−) peptide, reference compound] | none |  |  |  |  |  | 
Inhibition was again observed | did not completely inhibit | QGLRGEEMEEMV (not fully specified; listed as Juglans regia) [E1, solid-phase and soluble forms] | 15 | completely inhibit | Partial to complete inhibition | six | five | four | five
